Laboratory results from the supplement of paper PMC10307832.

What was measured:
Experiment in all cases: relative viability (nuclei count vs DMSO), 5 days (fraction); higher = more cells survive
[1] = compound: CC1=CN2C(=O)C=C(N=C2C(=C1)C(C)NC3=CC=CC=C3)N4CCOCC4 [TGX 221] + COc1cccc2cc(-c3nc([C@H]4CC[C@H](C(=O)O)CC4)n4ncnc(N)c34)[nH]c12 [OSI-027] (partner 0.5 µM)
How it was run: (§1)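 Relative viability was taken as the ratio of nuclei in treated wells to nuclei in vehicle wells. Lung cancer cell lines in 1536-well plates received compounds by pin tool one day after seeding, either one drug alone or a fixed anchor-drug dose plus five library-drug doses (not always all listed) in √10 steps. Nuclei were counted on 4× images after 5 days of treatment, and values are medians of duplicate plates.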

[2] = compound: O=C(CCCCCCNC(=O)c1cnc(N(c2ccccc2)c2ccccc2)nc1)NO [Ricolinostat] + Cc1nc(NC(=O)N2CCC[C@H]2C(N)=O)sc1-c1ccnc(C(C)(C)C(F)(F)F)c1 [Alpelisib] (partner 2 µM)
How it was run: as §1

[3] = compound: C1=CC=C(C(=C1)C2=CC=C(C=C2)C3=CSC4=C3C(=C(C(=O)N4)C#N)O)O + COc1cccc2cc(-c3nc([C@H]4CC[C@H](C(=O)O)CC4)n4ncnc(N)c34)[nH]c12 [OSI-027] (partner 0.5 µM)
How it was run: as §1

[4] = compound: C1=CC=C(C(=C1)C2=CC=C(C=C2)C3=CSC4=C3C(=C(C(=O)N4)C#N)O)O + O=C(CCCCCCC(=O)Nc1ccccc1)NO [Vorinostat] (partner 1 µM)
How it was run: as §1

| Cell Line | relative viability ([1]; first compound 0.08 µM) | relative viability ([1]; first compound 0.253 µM) | relative viability ([1]; first compound 0.8 µM) | relative viability ([1]; first compound 2.53 µM) | relative viability ([1]; first compound 8 µM) | relative viability ([2]; first compound 0.08 µM) | relative viability ([2]; first compound 0.253 µM) | relative viability ([2]; first compound 0.8 µM) | relative viability ([2]; first compound 2.53 µM) | relative viability ([3]; first compound 0.08 µM) | relative viability ([3]; first compound 0.253 µM) | relative viability ([3]; first compound 0.8 µM) | relative viability ([3]; first compound 2.53 µM) | relative viability ([3]; first compound 8 µM) | relative viability ([4]; first compound 0.08 µM) | relative viability ([4]; first compound 0.253 µM) | relative viability ([4]; first compound 0.8 µM) | relative viability ([4]; first compound 2.53 µM) | relative viability ([4]; first compound 8 µM) |
| --- | --- | --- | --- | --- | --- | --- | --- | --- | --- | --- | --- | --- | --- | --- | --- | --- | --- | --- | --- |
| NCI-H358 | 0.716 | 0.719 | 0.756 | 0.739 | 0.583 | 0.733 | 0.997 | 0.952 | 1.05 | 0.787 | 0.724 | 0.758 | 0.779 | 0.736 | 0.641 | 0.647 | 0.666 | 0.839 | 0.484 |
| NCI-H441 | 0.58 | 0.698 | 0.576 | 0.728 | 0.665 | 0.597 | 0.596 | 0.803 | 0.539 | 0.647 | 0.669 | 0.565 | 0.822 | 0.646 | 0.551 | 0.812 | 0.858 | 0.818 | 0.742 |
| NCI-H460 | 0.666 | 0.566 | 0.713 | 0.56 | 0.504 | 0.321 | 0.461 | 0.421 | 0.402 | 0.36 | 0.755 | 0.377 | 0.868 | 0.462 | 0.529 | 0.339 | 0.866 | 0.924 | 0.582 |
| NCI-H520 | 0.212 | 0.165 | 0.227 | 0.188 | 0.195 |  | 0.765 | 0.954 | 0.852 | 0.174 | 0.192 | 0.237 | 0.304 | 0.233 | 0.655 | 0.571 | 0.69 | 0.726 | 0.604 |
| NCI-H596 | 0.748 | 0.688 | 0.803 | 0.487 | 0.693 | 0.429 | 0.492 | 0.446 | 0.463 | 0.55 | 0.722 | 0.692 | 0.732 | 0.553 | 0.588 | 0.574 | 0.589 | 0.48 | 0.527 |
| NCI-H647 | 0.475 | 0.562 | 0.483 | 0.517 | 0.425 | 1.16 | 1.09 | 1.15 | 0.937 | 0.694 | 0.578 | 0.568 | 0.628 | 0.362 |  | 0.947 | 0.58 | 0.637 | 0.461 |
| NCI-H650 | 0.519 | 0.515 | 0.445 | 0.527 | 0.504 |  | 1.18 | 0.922 | 0.877 | 0.474 | 0.469 | 0.501 | 0.587 | 0.58 | 0.412 | 0.438 | 0.422 | 0.426 | 0.309 |
| NCI-H661 | 0.748 | 0.695 | 0.689 | 0.673 | 0.706 |  | 0.597 | 0.642 | 0.844 | 0.648 | 0.739 | 0.524 | 0.649 | 0.664 | 0.803 | 0.836 | 0.772 | 0.84 | 0.6 |
| NCI-H727 | 0.556 | 0.478 | 0.693 | 0.529 | 0.566 | 0.546 | 0.64 | 0.759 | 0.502 | 0.474 | 0.671 | 0.668 | 0.519 | 0.52 | 1.38 | 1.26 | 1.24 | 1.21 | 1.05 |
| NCI-H838 | 0.399 | 0.326 | 0.326 | 0.365 | 0.355 | 0.903 | 1.08 | 1.04 | 1.08 | 0.379 | 0.394 | 0.388 | 0.342 | 0.354 | 0.749 | 0.691 | 0.775 | 0.704 | 0.744 |
| NCI-H1355 | 0.377 | 0.427 | 0.385 | 0.314 | 0.331 |  | 0.847 | 0.795 | 0.715 | 0.379 | 0.44 | 0.43 | 0.351 | 0.317 | 0.627 | 0.658 | 0.626 | 0.578 | 0.592 |
| NCI-H1395 | 0.542 | 0.525 | 0.61 | 0.475 | 0.544 |  | 1.12 | 1.13 | 1.26 | 0.501 | 0.647 | 0.637 | 0.644 | 0.576 |  | 0.683 | 0.551 | 0.618 | 0.606 |
| NCI-H1437 | 0.878 | 0.899 | 0.809 | 0.848 | 0.728 | 0.888 | 1.03 | 0.907 | 0.722 | 0.869 | 1.05 | 0.868 | 0.873 | 0.703 | 0.788 | 0.934 | 0.889 | 0.874 | 0.603 |
| NCI-H1651 | 0.555 | 0.632 | 0.63 | 0.59 | 0.586 | 0.885 | 0.997 | 0.917 | 0.884 | 0.66 | 0.76 | 0.715 | 0.576 | 0.448 | 0.509 | 0.523 | 0.583 | 0.535 | 0.51 |
| NCI-H1666 | 0.836 | 0.81 | 0.831 | 0.819 | 0.887 | 0.938 | 0.895 | 0.997 | 0.463 | 0.804 | 1.09 | 0.901 | 0.777 | 0.745 | 0.905 | 1.04 | 0.993 | 1.03 | 0.984 |
| NCI-H1734 | 0.57 | 0.579 | 0.621 | 0.527 | 0.532 | 0.469 | 0.684 | 0.645 | 0.721 | 0.642 | 0.608 | 0.618 | 0.595 | 0.432 | 0.747 | 0.767 | 0.751 | 0.803 | 0.765 |
| NCI-H1755 | 0.685 | 0.728 | 0.605 | 0.657 | 0.697 | 0.771 |  | 0.92 | 0.902 | 0.762 | 0.848 | 0.616 | 0.686 | 0.751 | 0.822 | 0.913 | 0.735 | 0.761 | 0.687 |
| NCI-H1793 | 0.249 | 0.237 | 0.248 | 0.183 | 0.218 |  | 0.633 | 0.698 | 0.755 | 0.281 | 0.378 | 0.267 | 0.263 | 0.252 | 0.58 | 1.05 | 0.497 | 0.634 | 0.681 |
| NCI-H1915 | 0.575 | 0.601 | 0.63 | 0.472 | 0.619 | 1.01 | 1.06 | 1.01 | 0.962 | 0.645 | 0.622 |  | 0.657 | 0.534 | 0.455 | 0.468 | 0.449 | 0.552 | 0.46 |
| NCI-H1944 | 0.377 | 0.39 | 0.397 | 0.409 | 0.388 | 0.649 | 0.783 | 0.74 | 0.58 | 0.39 | 0.436 | 0.336 | 0.367 | 0.4 | 0.682 | 0.637 | 0.571 | 0.479 | 0.478 |
| NCI-H1975 | 0.694 | 0.676 | 0.653 | 0.528 | 0.555 | 0.582 | 0.556 |  | 0.492 | 0.535 | 0.823 | 0.689 | 0.709 | 0.676 | 0.665 | 0.78 | 0.736 | 0.81 | 0.677 |
| NCI-H1993 | 0.504 | 0.575 | 0.579 | 0.559 | 0.533 | 0.619 | 0.76 | 0.711 | 0.73 | 0.442 | 0.539 | 0.543 | 0.595 | 0.595 | 0.57 | 1.02 | 0.979 | 0.845 | 0.644 |
| NCI-H2009 | 0.543 | 0.583 | 0.574 | 0.569 | 0.49 | 1.13 | 1.11 | 1.12 | 0.923 | 0.624 | 0.63 | 0.555 | 0.612 | 0.509 | 0.728 | 0.715 | 0.859 | 0.716 | 0.638 |
| NCI-H2023 | 0.324 | 0.328 | 0.441 | 0.322 | 0.275 | 0.503 | 0.581 | 0.614 | 0.499 | 0.32 | 0.441 | 0.404 | 0.382 | 0.317 | 0.677 | 0.793 | 0.56 | 0.725 | 0.453 |
| NCI-H2085 | 0.714 | 0.645 | 0.659 | 0.323 | 0.462 |  | 1.04 | 0.861 | 0.915 | 0.866 | 1.02 | 0.661 | 0.627 | 0.512 | 0.726 | 0.893 | 0.764 | 0.784 | 0.714 |
| NCI-H2087 | 0.579 | 0.481 | 0.574 | 0.465 | 0.622 | 1.14 | 1.21 | 0.949 | 0.999 | 0.551 | 0.772 | 0.568 | 0.57 | 0.358 | 0.336 | 0.672 | 0.685 | 0.764 | 0.918 |
| NCI-H2126 | 0.703 | 0.733 | 0.619 | 0.539 | 0.702 | 0.578 | 0.707 | 0.716 | 0.628 | 0.639 | 0.718 | 0.654 | 0.737 | 0.708 | 0.846 | 0.787 | 0.803 | 0.832 | 0.732 |
| NCI-H2170 | 0.717 | 0.737 | 0.681 | 0.66 | 0.712 | 0.687 | 0.764 | 0.862 | 0.934 | 0.76 | 0.74 | 0.676 | 0.677 | 0.754 | 0.9 | 0.819 | 0.921 | 0.778 | 0.616 |
